{
  "source": "a melting point compilation (Tetko et al.; mined from patent text by program, amines drawn as free bases though some values may be those of a salt)",
  "data": [
    {"units": {"melting point": "°C"}, "values": [
      {"smiles": "CC(=O)OC1CC2=CCC3C4CCCC4(C)CCC3C2(C)C(OC(C)=O)C1", "note": "(stereo not given)", "melting point": "163 to 165"},
      {"smiles": "O=C1C(c2ccccc2)CC=C2c3ccsc3CCN12", "note": "(stereo not given)", "melting point": "159 to 161"},
      {"smiles": "FC(F)(F)c1csc(Nc2cc3ccccc3cn2)n1", "melting point": "200 to 203"},
      {"smiles": "CC(=O)Nc1ccc(C(F)(F)F)cc1C", "melting point": 160},
      {"smiles": "COc1cccc(OC)c1-c1cc(C(=O)O)nn1-c1ccc(C(N)=O)cc1C", "melting point": "275 to 276"},
      {"smiles": "CCC(O)c1oc(C)cc(=O)c1O", "note": "(stereo not given)", "melting point": "134 to 136"},
      {"smiles": "CN1C(CCCCCBr)Nc2cc(Cl)c(S(=O)(=O)NCc3ccccc3)cc2S1(=O)=O", "note": "(stereo not given)", "melting point": "141 to 142"},
      {"smiles": "O=C1Nc2ccccc2C12COc1ccc(F)cc12", "note": "(stereo not given)", "melting point": "224 to 226"},
      {"smiles": "Cc1nc2ccccc2n1-c1ccc(C(=O)N(C)C2CCNCC2)cc1", "melting point": "219 to 221"},
      {"smiles": "CN1C2=CC=CN(CCc3ccc(OCc4ccccc4)cc3)C2=Nc2ccccc2S1(=O)=O", "melting point": "133 to 134"},
      {"smiles": "Cn1nc(-c2cnc(N)nc2-c2ccc(Cl)cc2)ccc1=O", "melting point": 264},
      {"smiles": "Nc1cc(C#Cc2ccccc2)c(-c2cc([N+](=O)[O-])c(N)cc2C#Cc2ccccc2)cc1[N+](=O)[O-]", "melting point": "252 to 253"},
      {"smiles": "CCCCn1c(=O)c(NC(=O)Nc2c(C(C)C)cccc2C(C)C)c(-c2cccc(OCCCCl)c2)c2cccnc21", "melting point": "138 to 140"},
      {"smiles": "NC(=O)c1[nH]nc([C@@H]2O[C@H](CO)[C@@H](O)[C@H]2O)c1O", "melting point": "112 to 115"},
      {"smiles": "CCCCCCCCCCCCCc1c[nH]c(C(=O)OC)c1", "melting point": "80 to 82"},
      {"smiles": "CCCN(CCC)S(=O)(=O)c1cc(C2=CCC(=O)O2)ccc1Cl", "melting point": "118 to 121"},
      {"smiles": "CCOc1ccc(C(=NO)c2ccc(OC)c(Cl)c2Cl)c(F)c1", "melting point": "188 to 189"},
      {"smiles": "O=C1Nc2ccc(C(F)(F)F)cc2C1(O)c1cc(Cl)ccc1O", "note": "(stereo not given)", "melting point": "156 to 158"},
      {"smiles": "OC1CCCCCC/C1=C\\Br", "note": "(stereo not given)", "melting point": "144 to 145"},
      {"smiles": "CC1(C)C(C(=O)O)C1C(O)C(F)(Cl)Cl", "note": "(stereo not given)", "melting point": 142},
      {"smiles": "CS(=O)(=O)Nc1cccc(SCc2ccccc2)n1", "melting point": "123 to 125"},
      {"smiles": "CCCCCCCCCCCCCCCCSCC(CNS(=O)(=O)CCCI)NC(=O)OCCCC", "note": "(stereo not given)", "melting point": "82 to 83"},
      {"smiles": "CCN(CC)C(=O)Cc1nn(-c2ccccc2)c(=O)c2c1c1ccc(Cl)cc1n2C", "melting point": "167 to 168"},
      {"smiles": "CC(CCCCCC(C)NC(=O)c1ccc(OC(F)(F)F)cc1)NC(=O)c1ccc(OC(F)(F)F)cc1", "note": "(stereo not given)", "melting point": "156 to 160"},
      {"smiles": "CSc1cc2c(cc1C(F)(F)F)N(C(=O)Nc1cccc(C(=O)NC3CCN(Cc4ccccc4)C3)c1)CC2", "note": "(stereo not given)", "melting point": "174 to 175"},
      {"smiles": "Cc1cc(Br)c2ncn([C@H](C)[C@](O)(Cn3cncn3)c3ccc(F)cc3F)c(=O)c2c1", "melting point": "116 to 123"},
      {"smiles": "Cc1nn(-c2ccccn2)c2nc3ccccc3cc12", "melting point": "153 to 154"},
      {"smiles": "CCCCCCCCCCCCCCCCCCOc1ccc(C(=O)C(=O)OCC)cc1", "melting point": "46 to 48"},
      {"smiles": "O=C(O)c1ccc(OCCCCn2c(-c3ccccc3)nc(-c3ccccc3)c2-c2ccccc2)cc1", "melting point": "202 to 203"},
      {"smiles": "CN1C(=O)C(=Cc2nc(C(C)(C)C)c(O)c(C(C)(C)C)n2)SC1=S", "melting point": "226 to 228"},
      {"smiles": "COc1c(C(F)(F)F)cc([N+](=O)[O-])c(NN(C)C)c1[N+](=O)[O-]", "melting point": "109 to 110"},
      {"smiles": "COCC1CN(c2ccc(C3CCC(OCCC#N)CC3)cc2)C(=O)O1", "note": "(racemic)", "melting point": "57 to 59"},
      {"smiles": "CCc1nc(Cl)c([N+](=O)[O-])c(NC(C)C)n1", "melting point": "51 to 52"},
      {"smiles": "C=C(C)COc1ccc(C=CC(=O)OCCCC)cc1", "melting point": "32 to 33"},
      {"smiles": "CC(=O)N1CCn2c3c(c4cccc(c42)C1)CCCCCC3", "melting point": "41 to 44"},
      {"smiles": "COc1c(Cc2c[nH]cn2)cccc1C(N)=O", "melting point": 160},
      {"smiles": "CC1(C)OC(=O)Nc2ccc(-c3ccc(C#N)[nH]3)cc21", "melting point": "241 to 242"},
      {"smiles": "CNC(=O)c1cnc2cccc(C)n2c1=O", "melting point": "208 to 210"},
      {"smiles": "Cc1cc2[nH]c(=O)ccc(=O)c2cc1C", "melting point": 258},
      {"smiles": "COc1ccc(CSc2nnc(-c3ccc4c(c3)CCO4)o2)cc1Cl", "melting point": "136 to 137"},
      {"smiles": "CCCNc1nc(OCC)nc2cscc12", "melting point": "140 to 142"},
      {"smiles": "COc1ccc(SC2(CCCC#Cc3ccc(Cl)cc3)SC(=O)NC2=O)cc1", "note": "(stereo not given)", "melting point": "106 to 109"},
      {"smiles": "CNC(=O)c1ccccc1Nc1nc(Nc2ccc3c(c2)CCCC(=O)N3)ncc1Cl", "melting point": 283},
      {"smiles": "CC(C)OC(=O)n1ncc2cc(C(O)(c3cn(C)c4ccccc34)C(F)(F)F)ccc21", "note": "(stereo not given)", "melting point": "105 to 106"},
      {"smiles": "Oc1ccccc1Nc1nccc(-c2cccnc2)n1", "melting point": "166 to 169"},
      {"smiles": "Cc1ccc(NC(=O)OC(C)(C)C)c(C)c1", "melting point": "90 to 91"},
      {"smiles": "CC(C)OC1OC(=O)CC(C)(C)C1OS(C)(=O)=O", "note": "(stereo not given)", "melting point": 75},
      {"smiles": "CC(C)(C)NS(=O)(=O)c1c(Cl)cccc1-c1ccccc1", "melting point": "168 to 170"},
      {"smiles": "COc1ccc(-c2ccsc2)c2c1c(CCN(C)C)cn2C", "melting point": "120 to 122"},
      {"smiles": "CN1C(=O)C(NC(=O)CCC2CCCCC2)N=C(c2ccccc2)c2cnccc21", "note": "(stereo not given)", "melting point": "170 to 173"}
    ]}
  ]
}
